Experimental data from the SangsterLogP compilation.

test: method code RP-HPLC, from DOI: 10.1021/jm030408h, PMID: 14971904

In order of rising logP:
1. COc1ccc2c3c1O[C@H]1C[C@@H](O)C=C[C@@]31CCN(C)C2  0.21
2. COc1ccc2c3c1O[C@H]1C(=O)CC[C@@]4(O)[C@@H](C2)N(C)CC[C@]314  0.37
3. CC[C@H]1OC(=O)[C@H](C)[C@@H](O[C@H]2C[C@@](C)(OC)[C@@H](O)[C@H](C)O2)[C@H](C)[C@@H](O[C@@H]2O[C@H](C)C[C@H](N(C)C)[C@H]2O)[C@](C)(O)C[C@@H](C)CN(C)[C@H](C)[C@@H](O)[C@]1(C)O  0.9
4. OC(CNCC(O)C1CCc2cc(F)ccc2O1)C1CCc2cc(F)ccc2O1 (stereo not given)  2.76
5. C[N+](C)([O-])CCC=C1c2ccccc2CCc2ccccc21  3.14
6. CN1CC(C(=O)NC2(C)OC3(O)C4CCCN4C(=O)C(Cc4ccccc4)N3C2=O)C=C2c3cccc4[nH]cc(c34)CC21 (stereo not given)  4.38
7. CCc1nn(CCCN2CCN(c3cccc(Cl)c3)CC2)c(=O)n1CCOc1ccccc1  4.95
8. C#CCCCC(=O)c1cc(C(C)(C)C)c(O)c(C(C)(C)C)c1  5.63
9. CCC(C)n1ncn(-c2ccc(N3CCN(c4ccc(OC[C@H]5CO[C@](Cn6cncn6)(c6ccc(Cl)cc6Cl)O5)cc4)CC3)cc2)c1=O (stereo not given in full)  5.9
10. CCCCCc1cc(O)c2c(c1)OC(C)(C)[C@@H]1CCC(C)=C[C@@H]21  6.99
